Results taken from patent US20240287429A1, “MEDICINAL AGENT EFFECT PREDICTION SYSTEM” (Tohoku Institute of Technology, priority 2021, published 2024).

How the values were obtained:
[1] = system: neurites growing from nerve cells (rat DRG cells); assay: assessment by medicinal agent effect prediction system: microscope image of neurites cultured in the microfluidic device, applied to learned model M1; assay type: cell-based; conditions: image of FIG. 10 applied to learned model M1; result shown in FIG. 11
Excerpt: FIG. 7A to FIG. 7D are observation images obtained by culturing nerve cells 41 in the microfluidic devices 30 using culture solutions respectively containing different known substances and observing, with a microscope, neurites 42 located in the second culture spaces 37. It should be noted that rat DRG cells are herein used as nerve cells 41, but various cells such as mouse DRG cells, human ES cells, or human iPS cells can be used.
Then, neurites 42 growing from the nerve cells 41 and located in the second culture space 37 were observed by the microscope 50 to obtain an observation image.
Image data based on the observation image was input as input data for assessment i42t to the system 10 through the data input receiving unit 11. In the system 10, the assessment unit 15 applied the input data for assessment i42t to the learned model M1. That is, features based on the input data for assessment i42t were applied to the input layer of the learned model M1. As a result, the result of assessment shown in FIG. 11 was output from the display output unit 17.
The percentage of correct answers is further improved by increasing the number of samples of teaching data and the number of times of learning.

peripheral nerves = conditions: stated as known; not the applicant's own test; cited from earlier work

Row | result of assessment (impaired nerve site predicted by the system) [1] | Structure (SMILES) | impairment of peripheral nerves the substance is known to cause (peripheral nerves)
1 | high possibility of causing axonopathy | CC(=O)O[C@H]1C(=O)[C@@]2(C)[C@H]([C@H](OC(=O)c3ccccc3)[C@]3(O)C[C@H](OC(=O)[C@H](O)[C@@H](NC(=O)c4ccccc4)c4ccccc4)C(C)=C1C3(C)C)[C@]1(OC(C)=O)CO[C@@H]1C[C@@H]2O [Paclitaxel] | –
2 | – | OC[C@H]1O[C@@](CO)(O[C@H]2O[C@H](CO)[C@@H](O)[C@H](O)[C@H]2O)[C@@H](O)[C@@H]1O [Sucrose] | not to be toxic to peripheral nerves
3 | – | O=C1[O][Pt]2([NH][C@@H]3CCCC[C@H]3[NH]2)[O]C1=O [Oxaliplatin] | neuronopathy
4 | – | CC[C@]1(O)C[C@H]2CN(CCc3c([nH]c4ccccc34)[C@@](C(=O)OC)(c3cc4c(cc3OC)N(C=O)[C@H]3[C@@](O)(C(=O)OC)[C@H](OC(C)=O)[C@]5(CC)C=CCN6CC[C@]43[C@@H]65)C2)C1 [Vincristine] | axonopathy
